The record followed here is ChEMBL document CHEMBL1154047, “Chiral gossypol derivatives: evaluation of their anticancer activity and molecular modeling” (Eur J Med Chem, 2009).

In assay [1] the test system is HeLa. In words: Ratio of compound IC50 to (-)-gossypol IC50 for human HeLa cells. Format: functional.
The nature of assay [2]: Ratio of compound IC50 to (-)-gossypol IC50 for human M85 cells. Type of assay: functional.
Assay [3] in a line: Anticancer activity against human U87 cells after 48 hrs by MTT assay. Type of assay: functional, cell-based, U-87MG ATCC. (Formazan colour is commonly taken as a measure of viable cells.)
Assay [4] is described as follows: Ratio of compound IC50 to cisplatin IC50 for human M85 cells. Format: functional.
Assay [5] can be described thus: Ratio of compound IC50 to cisplatin IC50 for human U87 cells. Type of assay: functional, U-87MG ATCC.
Assay [6] can be described thus: Anticancer activity against human M85 cells after 48 hrs by MTT assay. Type of assay: functional, cell-based.
Assay [7] can be described thus: Ratio of compound IC50 to (-)-gossypol IC50 for human U87 cells. Format: functional, U-87MG ATCC.
Assay [8] deals with HeLa. In words: Anticancer activity against human HeLa cells after 48 hrs by MTT assay. Format: functional, cell-based.
Assay [9] relates to HeLa. In words: Ratio of compound IC50 to cisplatin IC50 for human HeLa cells. Type of assay: functional.

SMILES strings stand for the structures.

For orientation: IC50 means the concentration needed to halve the response being measured. Take `Cc1cc2c(c(O)c1-c1c(C)cc3c(c1O)/C(=C/N[C@H](CO)[C@H](O)c1ccc([N+](=O)[O-])cc1)C(=O)C(O)=C3C(C)C)/C(=C/N[C@H](CO)[C@H](O)c1ccc([N+](=O)[O-])cc1)C(=O)C(O)=C2C(C)C` (stereo in doubt; 1a): the “Ratio IC50” value in the assay on HeLa [1] was determined as 1.1; in [2], 1.03; in assay [4], 1.28; in assay [5], 1.79; in [7] it was 1.01; with HeLa [9], 1.56. For the same compound, the IC50 came to 30.6 µM in assay [3] (u-87mg atcc), 19 µM in assay [6] (m85) and 19.6 µM in the assay with HeLa [8] (hela).

Consider `Cc1cc2c(c(O)c1-c1c(C)cc3c(c1O)/C(=C/N[C@H](CO)[C@H](O)c1ccc([N+](=O)[O-])cc1)C(=O)C(O)=C3C(C)C)/C(=C/N[C@H](CO)[C@H](O)c1ccc([N+](=O)[O-])cc1)C(=O)C(O)=C2C(C)C` (stereo in doubt; 1b), for which the “Ratio IC50” value is given as 0.49 in the assay with HeLa [1]; less than 0.14 in assay [2]; less than 0.17 in [4]; 0.78 in [5]; 0.44 in assay [7]; 0.69 in the assay on HeLa [9]. In addition, the results for the IC50 (in [3] (u-87mg atcc); in assay [6] (m85); with HeLa [8] (hela)) were 13.3 µM, less than 2.5 µM and 8.7 µM, respectively.

For the compound `Cc1cc2c(c(O)c1-c1c(C)cc3c(c1O)/C(=C/N[C@H](CO)Cc1ccccc1)C(=O)C(O)=C3C(C)C)/C(=C/N[C@H](CO)Cc1ccccc1)C(=O)C(O)=C2C(C)C` (stereo in doubt; 2a), the “Ratio IC50” value with HeLa [1] came out at 1.49; in assay [2], 1.17; in [4], 1.44; in assay [5], 1.73; in [7] it was 0.98; in the assay with HeLa [9], 2.1. Besides, the IC50 in [3] (Homo sapiens, U-87 MG, 48 h) worked out at 29.5 µM; in assay [6] (Homo sapiens, M85, 48 h), 21.5 µM; in the assay with HeLa [8] (Homo sapiens, HeLa, 48 h) it was 26.5 µM.

Consider `Cc1cc2c(c(O)c1-c1c(C)cc3c(c1O)/C(=C/N[C@H](CO)Cc1ccccc1)C(=O)C(O)=C3C(C)C)/C(=C/N[C@H](CO)Cc1ccccc1)C(=O)C(O)=C2C(C)C` (stereo in doubt; 2b), for which the “Ratio IC50” value with HeLa [1] is reported as 0.83; in assay [2], 0.84; in assay [4], 1.04; in assay [5], 1.71; in [7] it was 0.97; with HeLa [9], 1.17. Further, the IC50 in assay [3] (u-87mg atcc) came to 29.3 µM; in assay [6] (m85), 15.5 µM; in the assay on HeLa [8] (hela), 14.7 µM.

Take `Cc1cc2c(c(O)c1-c1c(C)cc3c(c1O)/C(=C/NCCc1ccccc1)C(=O)C(O)=C3C(C)C)/C(=C/NCCc1ccccc1)C(=O)C(O)=C2C(C)C` (stereo in doubt; 3a): the entries for the “Ratio IC50” value in the assay on HeLa [1] and with HeLa [9] were 2.91 and 4.11, respectively. For the same compound, the IC50 in [3] (Homo sapiens, U-87 MG, 48 h) was more than 80 µM; in [6] (Homo sapiens, M85, 48 h), more than 80 µM; in the assay on HeLa [8] (Homo sapiens, HeLa, 48 h), 51.8 µM.

In the case of `Cc1cc2c(c(O)c1-c1c(C)cc3c(c1O)/C(=C/NCCc1ccccc1)C(=O)C(O)=C3C(C)C)/C(=C/NCCc1ccccc1)C(=O)C(O)=C2C(C)C` (stereo in doubt; 3b), the “Ratio IC50” value in the assay with HeLa [1] worked out at 2.24; in the assay on HeLa [9], 3.17. The compound further registered a half-maximal inhibitory concentration (IC50) in the assay with HeLa [8] (hela) of 39.9 µM.

In the case of `Cc1cc2c(c(O)c1-c1c(C)cc3c(c1O)/C(=C/NCCCO)C(=O)C(O)=C3C(C)C)/C(=C/NCCCO)C(=O)C(O)=C2C(C)C` (stereo in doubt; 4a), the “Ratio IC50” value came out at 0.6 in the assay on HeLa [1]; 1.15 in assay [2]; 1.42 in assay [4]; 1.7 in [5]; 0.96 in assay [7]; 0.85 with HeLa [9]. The IC50 in assay [3] (u-87mg atcc) came to 29 µM; in assay [6] (m85) it was 21.1 µM; in the assay with HeLa [8] (Homo sapiens, HeLa, 48 h) it was 10.7 µM.

Take `Cc1cc2c(c(O)c1-c1c(C)cc3c(c1O)/C(=C/NCCCO)C(=O)C(O)=C3C(C)C)/C(=C/NCCCO)C(=O)C(O)=C2C(C)C` (stereo in doubt; 4b): the “Ratio IC50” value in the assay on HeLa [1] stood at 0.7; in assay [2] it was 0.29; in [4] it was 0.36; in assay [5] it was 0.71; in [7], 0.4; in the assay with HeLa [9], 0.99. The IC50 in [3] (u-87mg atcc) was found to be 12.1 µM; in assay [6] (m85) it was 5.4 µM; with HeLa [8] (hela), 12.5 µM.

`Cc1cc2c(c(O)c1-c1c(C)cc3c(c1O)/C(=C/NC1CC1)C(=O)C(O)=C3C(C)C)/C(=C/NC1CC1)C(=O)C(O)=C2C(C)C` (stereo in doubt; 5a): the “Ratio IC50” value is 3.14 in the assay on HeLa [1], 0.95 in assay [2], 1.17 in assay [4] and 4.44 in the assay on HeLa [9]. Besides, the IC50 in [3] (u-87mg atcc) was more than 80 µM; in assay [6] (Homo sapiens, M85, 48 h) it was 17.4 µM; with HeLa [8] (hela) it was 55.9 µM.

As for `Cc1cc2c(c(O)c1-c1c(C)cc3c(c1O)/C(=C/NC1CC1)C(=O)C(O)=C3C(C)C)/C(=C/NC1CC1)C(=O)C(O)=C2C(C)C` (stereo in doubt; 5b), the “Ratio IC50” value was found to be 0.76 with HeLa [1], 1.89 in assay [5], 1.07 in assay [7] and 1.07 with HeLa [9]. Also, the results for the IC50 (in assay [3] (u-87mg atcc); in assay [6] (m85); in the assay on HeLa [8] (hela)) were 32.4 µM, 17.5 µM and 13.5 µM, respectively.

As to `Cc1cc2c(c(O)c1-c1c(C)cc3c(c1O)/C(=C/Nc1ccc(Br)cc1)C(=O)C(O)=C3C(C)C)/C(=C/Nc1ccc(Br)cc1)C(=O)C(O)=C2C(C)C` (stereo in doubt; 6a), the “Ratio IC50” value is listed as 4.14 in the assay with HeLa [1] and 5.85 in the assay with HeLa [9]. Also, the IC50 is more than 80 µM in [3] (Homo sapiens, U-87 MG, 48 h); more than 80 µM in assay [6] (Homo sapiens, M85, 48 h); 73.7 µM in the assay on HeLa [8] (Homo sapiens, HeLa, 48 h).

For the compound `Cc1cc2c(c(O)c1-c1c(C)cc3c(c1O)/C(=C/Nc1ccc(Br)cc1)C(=O)C(O)=C3C(C)C)/C(=C/Nc1ccc(Br)cc1)C(=O)C(O)=C2C(C)C` (stereo in doubt; 6b), the “Ratio IC50” value is 2.76 in the assay on HeLa [1], 4.26 in assay [2], 5.26 in assay [4] and 3.9 in the assay with HeLa [9]. Also, the IC50 was 78.4 µM in assay [6] (m85) and 49.2 µM in the assay on HeLa [8] (hela).

As for `COC(=O)[C@H](Cc1ccccc1)N/C=C1\C(=O)C(O)=C(C(C)C)c2cc(C)c(-c3c(C)cc4c(c3O)/C(=C/N[C@@H](Cc3ccccc3)C(=O)OC)C(=O)C(O)=C4C(C)C)c(O)c21` (stereo in doubt; 7a), the concentration for half-maximal inhibition (IC50) in assay [3] (Homo sapiens, U-87 MG, 48 h) was more than 80 µM; in [6] (Homo sapiens, M85, 48 h) it was more than 80 µM; in the assay on HeLa [8] (Homo sapiens, HeLa, 48 h) it was more than 80 µM.

For the compound `COC(=O)[C@H](Cc1ccccc1)N/C=C1\C(=O)C(O)=C(C(C)C)c2cc(C)c(-c3c(C)cc4c(c3O)/C(=C/N[C@@H](Cc3ccccc3)C(=O)OC)C(=O)C(O)=C4C(C)C)c(O)c21` (stereo in doubt; 7b), the “Ratio IC50” value is listed as 3.88 with HeLa [1], 3.5 in assay [2], 4.32 in assay [4] and 5.48 in the assay on HeLa [9]. Moreover, the concentration for half-maximal inhibition (IC50) in [6] (m85) was 64.4 µM; in the assay on HeLa [8] (hela), 69 µM.

Turning to `COC(=O)[C@H](Cc1ccc(O)cc1)N/C=C1\C(=O)C(O)=C(C(C)C)c2cc(C)c(-c3c(C)cc4c(c3O)/C(=C/N[C@@H](Cc3ccc(O)cc3)C(=O)OC)C(=O)C(O)=C4C(C)C)c(O)c21` (stereo in doubt; 8a), the “Ratio IC50” value is 1.22 in the assay on HeLa [1]; 2.84 in [2]; 3.52 in [4]; 1.88 in [5]; 1.06 in assay [7]; 1.73 in the assay on HeLa [9]. Further, the IC50 in assay [3] (u-87mg atcc) came to 32.1 µM; in [6] (m85), 52.4 µM; with HeLa [8] (Homo sapiens, HeLa, 48 h) it was 21.8 µM.

With `COC(=O)[C@H](Cc1ccc(O)cc1)N/C=C1\C(=O)C(O)=C(C(C)C)c2cc(C)c(-c3c(C)cc4c(c3O)/C(=C/N[C@@H](Cc3ccc(O)cc3)C(=O)OC)C(=O)C(O)=C4C(C)C)c(O)c21` (stereo in doubt; 8b), the “Ratio IC50” value amounted to 0.64 with HeLa [1]; 0.89 in assay [2]; 1.09 in [4]; 0.85 in [5]; 0.48 in assay [7]; 0.9 in the assay with HeLa [9]. Moreover, the IC50 in [3] (u-87mg atcc) came to 14.5 µM; in assay [6] (m85), 16.3 µM; in the assay with HeLa [8] (hela), 11.4 µM.

As for `COC(=O)[C@H](Cc1c[nH]c2ccccc12)N/C=C1\C(=O)C(O)=C(C(C)C)c2cc(C)c(-c3c(C)cc4c(c3O)/C(=C/N[C@@H](Cc3c[nH]c5ccccc35)C(=O)OC)C(=O)C(O)=C4C(C)C)c(O)c21` (stereo in doubt; 9a), the IC50 in assay [3] (Homo sapiens, U-87 MG, 48 h) is more than 80 µM; in [6] (Homo sapiens, M85, 48 h), more than 80 µM; in the assay on HeLa [8] (Homo sapiens, HeLa, 48 h), more than 80 µM.

For `COC(=O)[C@H](Cc1c[nH]c2ccccc12)N/C=C1\C(=O)C(O)=C(C(C)C)c2cc(C)c(-c3c(C)cc4c(c3O)/C(=C/N[C@@H](Cc3c[nH]c5ccccc35)C(=O)OC)C(=O)C(O)=C4C(C)C)c(O)c21` (stereo in doubt; 9b), the “Ratio IC50” value in [2] was 2.84; in [4] it was 3.51. The compound also came in with a 50% inhibitory concentration (IC50) in assay [6] (m85) of 52.3 µM.

As for `Cc1cc2c(c(O)c1-c1c(C)cc3c(c1O)/C(=C/NC(C)C)C(=O)C(O)=C3C(C)C)/C(=C/NC(C)C)C(=O)C(O)=C2C(C)C` (stereo in doubt; 10a), the “Ratio IC50” value is 1.34 in the assay with HeLa [1]; 1.86 in assay [2]; 2.3 in [4]; 1.7 in assay [5]; 0.96 in [7]; 1.88 in the assay on HeLa [9]. In addition, the IC50 in assay [3] (Homo sapiens, U-87 MG, 48 h) stood at 29.1 µM; in assay [6] (Homo sapiens, M85, 48 h) it was 34.2 µM; with HeLa [8] (Homo sapiens, HeLa, 48 h), 23.8 µM.

With `COc1c(OC)c2c3c(c(-c4c(C)cc5c(C(C)C)c(OC)c(OC)c6c5c4OC6OC)c(C)cc3c1C(C)C)OC2OC` (stereo not drawn) [(-)-GOSSYPOL HEXAMETHYL ETHER], the half-maximal inhibitory concentration (IC50) in assay [3] (Homo sapiens, U-87 MG, 48 h) is more than 80 µM; in assay [6] (Homo sapiens, M85, 48 h) it was more than 80 µM; in the assay on HeLa [8] (Homo sapiens, HeLa, 48 h), more than 80 µM.
